From ChEMBL document CHEMBL3856198, “Synthesis of novel 17-(4'-formyl)pyrazolylandrosta-5,16-dienes and their derivatives as potent 17α-hydroxylase/C17,20-lyase inhibitors or antiproliferative agents depending on the substitution pattern of the heteroring” (Eur J Med Chem, 2016) come the findings set out here.

Assay [1] addresses T1, Steroid 17-alpha-hydroxylase/17,20 lyase (Rattus norvegicus, UniProt P11715).
T1 sequence (P11715 whole entry): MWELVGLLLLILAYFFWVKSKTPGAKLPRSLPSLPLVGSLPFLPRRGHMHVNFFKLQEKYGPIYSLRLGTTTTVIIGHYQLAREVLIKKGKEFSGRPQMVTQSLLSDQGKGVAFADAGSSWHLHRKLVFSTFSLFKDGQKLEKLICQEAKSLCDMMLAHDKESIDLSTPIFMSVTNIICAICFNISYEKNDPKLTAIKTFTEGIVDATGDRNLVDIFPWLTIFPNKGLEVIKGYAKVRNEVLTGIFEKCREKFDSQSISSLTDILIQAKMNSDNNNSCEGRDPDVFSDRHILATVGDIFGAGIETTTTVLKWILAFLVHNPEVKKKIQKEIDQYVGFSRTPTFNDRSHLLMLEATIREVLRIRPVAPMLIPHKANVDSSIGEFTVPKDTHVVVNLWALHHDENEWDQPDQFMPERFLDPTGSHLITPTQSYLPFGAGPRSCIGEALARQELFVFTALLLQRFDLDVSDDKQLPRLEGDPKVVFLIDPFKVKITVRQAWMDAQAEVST
The experiment in a line: Inhibition of Wistar rat testicular C17,20-lyase assessed as androst-4-ene-3,17-dione formation using [3H]17-hydroxyprogesterone as substrate in presence of NADPH.

Assay [2] can be described thus: Growth inhibition of human T47D cells at 30 uM after 72 hrs by MTT assay. The format is functional. The note with it: read-out: GI. On the technique in general: Tetrazolium assays rely on reduction of a dye to a coloured formazan, in cell work by metabolically active cells.
Assay [3] can be described thus: Growth inhibition of human MCF7 cells at 10 uM after 72 hrs by MTT assay. In kind it is functional. The note with it: MCF7, 72 h, read-out: GI.
A short description of assay [4]: Growth inhibition of human MCF7 cells at 30 uM after 72 hrs by MTT assay. The note with it: MCF7, 72 h, read-out: GI. In kind it is functional.
Assay [5] can be described thus: Growth inhibition of human MDA-MB-361 cells at 30 uM after 72 hrs by MTT assay. The format is functional. The note with it: MDA-MB-361, 72 h, read-out: GI.
The nature of assay [6]: Growth inhibition of human MDA-MB-231 cells at 10 uM after 72 hrs by MTT assay. In kind it is functional. The note with it: MDA-MB-231, 72 h, read-out: GI.
Assay [7] is described as follows: Growth inhibition of human MDA-MB-361 cells after 72 hrs by MTT assay. In kind it is functional, cell-based. The note with it: MDA-MB-361, 72 h.
Assay [8] in a line: Growth inhibition of human T47D cells at 10 uM after 72 hrs by MTT assay. The format is functional. The note with it: read-out: GI.
Assay [9] in a line: Growth inhibition of human T47D cells after 72 hrs by MTT assay. The format is functional, cell-based.
Assay [10] can be described thus: Growth inhibition of human MCF7 cells after 72 hrs by MTT assay. The format is functional, cell-based. The note with it: MCF7, 72 h.
The nature of assay [11]: Growth inhibition of human MDA-MB-231 cells after 72 hrs by MTT assay. The format is functional, cell-based. The note with it: MDA-MB-231, 72 h.
Assay [12] in a line: Growth inhibition of human MDA-MB-231 cells at 30 uM after 72 hrs by MTT assay. The note with it: MDA-MB-231, 72 h, read-out: GI. In kind it is functional.
The nature of assay [13]: Growth inhibition of human MDA-MB-361 cells at 10 uM after 72 hrs by MTT assay. The format is functional. The note with it: MDA-MB-361, 72 h, read-out: GI.

Some results are limits rather than exact numbers.

A word on the IC50: it is the midpoint of a concentration-inhibition curve.

For the compound `C[C@]12CC[C@H](O)CC1=CC[C@@H]1[C@@H]2CC[C@]2(C)C(c3ccn[nH]3)=CC[C@@H]12`, the concentration for half-maximal inhibition (IC50) in [1] was found to be 0.0077 µM.
In the case of `COc1ccc(-n2cc(C=O)c(C3=CC[C@H]4[C@@H]5CC=C6C[C@@H](O)CC[C@]6(C)[C@H]5CC[C@]34C)n2)cc1`, the inhibition of growth at 30 µM in assay [2] stood at 96.7%; in assay [4], 98.1%; in assay [5] it was 96.2%; in [12] it was 96.2%. Besides, the inhibition of growth at 10 µM was determined as 92.3% in [3], 96.1% in assay [6], 92.5% in assay [8] and 89.6% in assay [13]. Besides, the concentration for half-maximal inhibition (IC50) in assay [7] turned out to be 3.3 µM; in assay [9], 3.7 µM; in assay [10], 3.8 µM; in [11], 3.6 µM.
For `C[C@]12CC[C@H](O)CC1=CC[C@@H]1[C@@H]2CC[C@]2(C)C(c3nn(-c4ccccc4)cc3CO)=CC[C@@H]12`, the inhibition of growth at 30 µM in [2] was determined as 90.6%; in assay [4], 89.8%; in assay [5], 96.1%; in assay [12], 93.2%. The inhibition of growth at 10 µM in [3] came to 79.2%; in assay [6], 85.2%; in [8], 74.4%; in [13], 90.6%. The figures for the concentration for half-maximal inhibition (IC50) in [7], in assay [10] and in assay [11] were 2.1 µM, 3.4 µM and 5.2 µM, respectively.
Regarding `C[C@]12CC[C@H](O)CC1=CC[C@@H]1[C@@H]2CC[C@]2(C)C(c3n[nH]cc3C=O)=CC[C@@H]12`, the inhibition of growth at 30 µM in assay [2] was found to be 77%; in [4], 80.8%; in [5], 79.7%; in [12] it was 93.7%. Further, the IC50 in [1] came to 0.066 µM. The inhibition of growth at 10 µM in [3] turned out to be 31.4%; in assay [6] it was 54.3%; in assay [8] it was 43.2%; in assay [13], 42.6%.
Regarding `Cn1cc(C#N)c(C2=CC[C@H]3[C@@H]4CC=C5C[C@@H](O)CC[C@]5(C)[C@H]4CC[C@]23C)n1`, the inhibition of growth at 30 µM in assay [2] came out at 29.6%; in assay [4], 40.9%; in assay [5], 32.5%; in assay [12] it was 32.6%. Besides, the inhibition of growth at 10 µM in [3], in assay [6], in [8] and in assay [13] was under 20% throughout.
Regarding `CC(=O)O[C@H]1CC[C@@]2(C)C(=CC[C@@H]3[C@@H]2CC[C@]2(C)C(c4nn(-c5ccccc5)cc4C=O)=CC[C@@H]32)C1`, the inhibition of growth at 30 µM is 79.9% in assay [2], 86.3% in [4], 76.9% in assay [5] and 71.5% in [12]. In addition, the inhibition of growth at 10 µM in assay [3] turned out to be 57.1%; in assay [6] it was 37.9%; in assay [8], 31.4%; in [13], 52.8%.
`C[C@]12CC[C@H](O)CC1=CC[C@@H]1[C@@H]2CC[C@]2(C)C(c3nn(-c4ccccc4)cc3C=O)=CC[C@@H]12`: the inhibition of growth at 30 µM in assay [2] came out at 96.9%; in assay [4] it was 98.1%; in assay [5], 95.8%; in [12] it was 96.3%. For the same compound, the inhibition of growth at 10 µM in [3] was 93.4%; in [6] it was 93.5%; in assay [8], 93.2%; in [13] it was 88.6%. In addition, the IC50 was 3.8 µM in assay [7], 3.9 µM in assay [9], 3.7 µM in assay [10] and 5.4 µM in assay [11].
Regarding `C[C@]12CC[C@H](O)CC1=CC[C@@H]1[C@@H]2CC[C@]2(C)C(c3nn(-c4ccc(Cl)cc4)cc3CO)=CC[C@@H]12`, the inhibition of growth at 30 µM in assay [2] came out at 94.8%; in assay [4], 90.9%; in assay [5], 93.1%; in assay [12], 97.8%. For the same compound, the inhibition of growth at 10 µM was 54.3% in [3], 93.2% in assay [6], 81% in [8] and 80% in assay [13]. Further, the IC50 in assay [7] was 2.5 µM; in [9], 5.7 µM; in [11] it was 3.6 µM.
For `C[C@]12CC[C@H](O)CC1=CC[C@@H]1[C@@H]2CC[C@]2(C)C(c3nn(-c4ccc(C#N)cc4)cc3CO)=CC[C@@H]12`, the inhibition of growth at 30 µM is 94.5% in assay [2], 88.4% in assay [4], 91.9% in [5] and 96.4% in [12]. Also, the inhibition of growth at 10 µM worked out at 71.6% in assay [3], 95.9% in assay [6], 89.6% in [8] and 86.5% in assay [13]. The IC50 amounted to 1.6 µM in assay [7], 1.2 µM in assay [9], 1.4 µM in assay [10] and 1.8 µM in assay [11].
For `C[C@]12CC[C@H](O)CC1=CC[C@@H]1[C@@H]2CC[C@]2(C)C(c3nn(-c4ccc(Br)cc4)cc3CO)=CC[C@@H]12`, the inhibition of growth at 30 µM was found to be 85.9% in [2], 86.9% in [4], 91.5% in assay [5] and 88.2% in assay [12]. Moreover, the inhibition of growth at 10 µM is 65.9% in [3], 76.8% in [6], 68.2% in [8] and 83.5% in assay [13]. Moreover, the IC50 in assay [7] was determined as 2 µM; in assay [11], 4 µM.
In the case of `C[C@]12CC[C@H](O)CC1=CC[C@@H]1[C@@H]2CC[C@]2(C)C(c3n[nH]cc3C#N)=CC[C@@H]12`, the inhibition of growth at 30 µM in assay [2] is 75.7%; in [4], 63.4%; in assay [5] it was 80.4%; in assay [12] it was 88.4%. In assay [1], the IC50 amounted to 0.092 µM. Moreover, the inhibition of growth at 10 µM in assay [3] was 36.6%; in assay [6], 23.3%; in [8], 46.8%; in assay [13], 46.6%.
With `C[C@]12CC[C@H](O)CC1=CC[C@@H]1[C@@H]2CC[C@]2(C)C(c3nn(-c4ccc([N+](=O)[O-])cc4)cc3CO)=CC[C@@H]12`, the inhibition of growth at 30 µM in assay [2] was 84.7%; in assay [4], 87.6%; in assay [5], 91.9%; in assay [12], 92.7%. The inhibition of growth at 10 µM in assay [3] is 65.4%; in [6] it was 78.1%; in assay [8], 73.2%; in assay [13], 82.2%. Further, the concentration for half-maximal inhibition (IC50) in assay [7] was 2.7 µM; in assay [11], 4.3 µM.
For `CC(=O)O[C@H]1CC[C@@]2(C)C(=CC[C@@H]3[C@@H]2CC[C@]2(C)C(c4nn(C(C)=O)cc4C#N)=CC[C@@H]32)C1`, the inhibition of growth at 30 µM is 63.9% in [2], 70% in assay [4], 64.6% in assay [5] and 61.3% in assay [12]. Moreover, the inhibition of growth at 10 µM in assay [3], in [6], in assay [8] and in assay [13] was under 20% throughout.
Take `C[C@]12CC[C@H](O)CC1=CC[C@@H]1[C@@H]2CC[C@]2(C)C(c3cccnc3)=CC[C@@H]12` [ABIRATERONE]: the inhibition of growth at 30 µM in [2] came to 70.8%; in [4], 74.7%; in [5], 61.2%; in [12] it was 85%. Besides, the inhibition of growth at 10 µM in assay [3] was 12.4%; in assay [6] it was 14.3%; in assay [8], 32.5%; in assay [13] it was 32.2%. The IC50 came out at 20.4 µM in assay [7], 16.9 µM in [9], 19.3 µM in assay [10] and 19.2 µM in assay [11].
